The values below come from ChEMBL document CHEMBL5291721, “A preclinical secondary pharmacology resource illuminates target-adverse drug reaction associations of marketed drugs” (Nat Commun, 2023).

In assay [1] the target is Prostaglandin G/H synthase 1 (Homo sapiens, UniProt P23219). Type of assay: functional.
Assay [2] has as its target cGMP-inhibited 3',5'-cyclic phosphodiesterase 3A (Homo sapiens, UniProt Q14432). Type of assay: functional.
In assay [3] the target is T1, Progesterone receptor (Homo sapiens, UniProt P06401).
T1 sequence (P06401 whole entry): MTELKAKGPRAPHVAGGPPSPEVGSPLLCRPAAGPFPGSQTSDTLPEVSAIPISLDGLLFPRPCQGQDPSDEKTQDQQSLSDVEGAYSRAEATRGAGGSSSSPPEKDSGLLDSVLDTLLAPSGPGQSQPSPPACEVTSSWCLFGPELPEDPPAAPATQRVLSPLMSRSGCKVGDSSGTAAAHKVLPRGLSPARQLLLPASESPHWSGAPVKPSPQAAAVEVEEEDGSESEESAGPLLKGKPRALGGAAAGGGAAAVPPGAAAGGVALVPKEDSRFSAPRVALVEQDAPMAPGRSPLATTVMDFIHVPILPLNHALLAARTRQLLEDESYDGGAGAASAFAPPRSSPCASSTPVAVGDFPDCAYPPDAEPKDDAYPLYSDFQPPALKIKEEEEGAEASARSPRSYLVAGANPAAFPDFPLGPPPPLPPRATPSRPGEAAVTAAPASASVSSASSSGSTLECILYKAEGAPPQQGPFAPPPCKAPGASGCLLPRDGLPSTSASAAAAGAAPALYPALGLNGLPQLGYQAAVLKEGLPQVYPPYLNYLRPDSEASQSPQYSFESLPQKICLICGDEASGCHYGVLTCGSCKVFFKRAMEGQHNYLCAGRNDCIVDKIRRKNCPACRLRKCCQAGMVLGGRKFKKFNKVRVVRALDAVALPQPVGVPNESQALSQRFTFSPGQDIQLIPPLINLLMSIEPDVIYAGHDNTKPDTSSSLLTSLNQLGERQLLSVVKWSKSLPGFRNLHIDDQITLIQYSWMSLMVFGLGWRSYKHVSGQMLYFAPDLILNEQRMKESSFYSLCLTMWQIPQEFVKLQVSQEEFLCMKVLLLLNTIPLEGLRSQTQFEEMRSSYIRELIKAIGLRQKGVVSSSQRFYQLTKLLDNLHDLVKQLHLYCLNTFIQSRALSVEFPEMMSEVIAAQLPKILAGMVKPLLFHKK

For assay [4], the target named is T2, Alpha-2A adrenergic receptor (Homo sapiens, UniProt P08913).
T2 sequence (P08913 whole entry): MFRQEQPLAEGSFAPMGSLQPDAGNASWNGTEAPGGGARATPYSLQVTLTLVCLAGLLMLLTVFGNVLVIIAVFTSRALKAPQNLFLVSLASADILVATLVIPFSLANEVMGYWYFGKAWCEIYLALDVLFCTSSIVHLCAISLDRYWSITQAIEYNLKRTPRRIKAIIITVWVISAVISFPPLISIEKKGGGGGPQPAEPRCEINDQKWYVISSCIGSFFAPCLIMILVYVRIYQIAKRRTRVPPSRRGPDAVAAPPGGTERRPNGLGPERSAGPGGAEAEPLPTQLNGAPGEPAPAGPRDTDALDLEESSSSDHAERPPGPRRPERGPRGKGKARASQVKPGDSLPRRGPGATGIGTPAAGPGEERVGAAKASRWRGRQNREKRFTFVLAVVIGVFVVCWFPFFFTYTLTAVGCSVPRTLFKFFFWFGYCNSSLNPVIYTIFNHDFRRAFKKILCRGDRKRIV

The target in assay [5] is Voltage-gated inwardly rectifying potassium channel KCNH2 (Homo sapiens, UniProt Q12809). Type of assay: functional. The note with it: read-out: AC50.
The target of assay [6] is D(3) dopamine receptor (Homo sapiens, UniProt P35462).
In assay [7] the target is 5-hydroxytryptamine receptor 2B (Homo sapiens, UniProt P41595). Type of assay: functional, cell-based.
The target in assay [8] is 3',5'-cyclic-AMP phosphodiesterase 4A (Homo sapiens, UniProt P27815). The assay is classed as functional.
Assay [9] deals with Prothrombin (Homo sapiens, UniProt P00734). Type of assay: functional.
Assay [10] deals with T3, Muscarinic acetylcholine receptor M2 (Homo sapiens, UniProt P08172).
T3 sequence (P08172 whole entry): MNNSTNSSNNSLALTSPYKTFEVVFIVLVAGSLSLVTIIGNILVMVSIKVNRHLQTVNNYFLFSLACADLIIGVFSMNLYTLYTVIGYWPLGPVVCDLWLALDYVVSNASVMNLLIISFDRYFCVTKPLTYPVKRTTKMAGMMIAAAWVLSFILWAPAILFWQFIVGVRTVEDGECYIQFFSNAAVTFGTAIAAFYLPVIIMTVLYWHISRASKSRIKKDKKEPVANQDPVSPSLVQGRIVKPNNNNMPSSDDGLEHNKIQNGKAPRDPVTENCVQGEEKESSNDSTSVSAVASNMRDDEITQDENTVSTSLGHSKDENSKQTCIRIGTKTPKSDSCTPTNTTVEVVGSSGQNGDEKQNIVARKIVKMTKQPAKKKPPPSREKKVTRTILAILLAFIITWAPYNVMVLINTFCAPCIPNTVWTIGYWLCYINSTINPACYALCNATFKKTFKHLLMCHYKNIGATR

Assay [11] concerns the target T4, Adenosine receptor A3 (Homo sapiens, UniProt P0DMS8).
T4 sequence (P0DMS8 whole entry): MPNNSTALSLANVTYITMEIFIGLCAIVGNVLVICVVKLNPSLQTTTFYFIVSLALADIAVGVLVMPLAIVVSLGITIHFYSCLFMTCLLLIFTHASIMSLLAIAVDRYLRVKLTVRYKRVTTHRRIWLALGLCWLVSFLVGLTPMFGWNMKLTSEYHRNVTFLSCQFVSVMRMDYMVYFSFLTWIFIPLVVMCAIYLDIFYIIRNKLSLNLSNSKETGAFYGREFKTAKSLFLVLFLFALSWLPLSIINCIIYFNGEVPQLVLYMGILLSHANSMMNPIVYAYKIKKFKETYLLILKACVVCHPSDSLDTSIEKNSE
Also: assay procedure not described here.

Sequence of cGMP-inhibited 3',5'-cyclic phosphodiesterase 3A (Q14432 whole entry): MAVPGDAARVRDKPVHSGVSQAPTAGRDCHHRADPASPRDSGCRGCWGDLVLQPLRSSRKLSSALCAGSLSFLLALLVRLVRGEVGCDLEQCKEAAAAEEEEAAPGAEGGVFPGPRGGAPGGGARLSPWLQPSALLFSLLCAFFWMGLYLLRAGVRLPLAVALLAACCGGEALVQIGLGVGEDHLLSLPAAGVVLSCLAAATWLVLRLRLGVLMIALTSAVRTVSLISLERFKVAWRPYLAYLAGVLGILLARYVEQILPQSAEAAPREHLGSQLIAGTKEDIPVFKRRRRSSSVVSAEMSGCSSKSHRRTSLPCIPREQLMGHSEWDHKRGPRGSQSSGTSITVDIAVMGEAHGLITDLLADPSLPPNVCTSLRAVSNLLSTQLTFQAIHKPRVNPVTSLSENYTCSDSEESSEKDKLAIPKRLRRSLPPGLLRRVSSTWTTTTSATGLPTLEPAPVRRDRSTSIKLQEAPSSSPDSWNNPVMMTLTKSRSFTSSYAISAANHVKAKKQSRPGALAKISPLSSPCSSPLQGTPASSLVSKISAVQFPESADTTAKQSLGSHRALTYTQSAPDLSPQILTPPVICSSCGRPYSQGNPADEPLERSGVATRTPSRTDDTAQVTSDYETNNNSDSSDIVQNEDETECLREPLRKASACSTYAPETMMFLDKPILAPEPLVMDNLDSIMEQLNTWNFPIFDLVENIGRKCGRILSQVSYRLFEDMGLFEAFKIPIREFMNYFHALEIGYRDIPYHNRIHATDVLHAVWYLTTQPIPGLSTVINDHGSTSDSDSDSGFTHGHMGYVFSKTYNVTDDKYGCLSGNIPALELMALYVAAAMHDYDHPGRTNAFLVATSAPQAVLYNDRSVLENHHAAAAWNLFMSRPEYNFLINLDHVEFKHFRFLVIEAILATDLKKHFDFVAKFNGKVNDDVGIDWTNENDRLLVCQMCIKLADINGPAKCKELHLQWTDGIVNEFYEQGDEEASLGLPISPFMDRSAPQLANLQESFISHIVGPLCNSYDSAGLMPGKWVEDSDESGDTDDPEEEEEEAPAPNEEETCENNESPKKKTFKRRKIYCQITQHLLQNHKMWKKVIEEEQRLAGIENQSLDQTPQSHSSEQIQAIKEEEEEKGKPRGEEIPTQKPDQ
Sequence of 5-hydroxytryptamine receptor 2B (P41595 whole entry): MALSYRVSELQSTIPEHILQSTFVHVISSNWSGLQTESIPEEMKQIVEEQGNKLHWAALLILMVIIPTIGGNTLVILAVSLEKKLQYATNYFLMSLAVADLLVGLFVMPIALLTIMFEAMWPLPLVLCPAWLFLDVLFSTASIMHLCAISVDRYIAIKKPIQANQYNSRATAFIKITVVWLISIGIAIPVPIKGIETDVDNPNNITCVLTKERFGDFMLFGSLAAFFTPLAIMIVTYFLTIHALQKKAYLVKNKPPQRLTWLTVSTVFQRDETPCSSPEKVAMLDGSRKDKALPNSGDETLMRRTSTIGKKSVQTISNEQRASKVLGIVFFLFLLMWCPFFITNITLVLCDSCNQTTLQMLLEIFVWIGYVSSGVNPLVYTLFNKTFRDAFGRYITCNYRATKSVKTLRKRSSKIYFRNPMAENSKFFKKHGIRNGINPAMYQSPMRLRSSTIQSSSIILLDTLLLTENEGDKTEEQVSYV
Sequence of D(3) dopamine receptor (P35462 whole entry): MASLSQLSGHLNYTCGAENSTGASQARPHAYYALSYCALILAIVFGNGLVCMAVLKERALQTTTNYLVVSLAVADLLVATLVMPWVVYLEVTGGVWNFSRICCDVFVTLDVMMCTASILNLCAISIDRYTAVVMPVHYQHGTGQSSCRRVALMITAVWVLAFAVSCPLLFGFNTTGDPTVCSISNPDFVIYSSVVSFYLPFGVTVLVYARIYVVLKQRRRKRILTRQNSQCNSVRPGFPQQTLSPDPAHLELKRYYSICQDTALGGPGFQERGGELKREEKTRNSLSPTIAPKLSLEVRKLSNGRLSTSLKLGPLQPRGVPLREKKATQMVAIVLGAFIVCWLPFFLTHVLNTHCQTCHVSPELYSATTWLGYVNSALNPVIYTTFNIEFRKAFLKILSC
Sequence of Voltage-gated inwardly rectifying potassium channel KCNH2 (Q12809 whole entry): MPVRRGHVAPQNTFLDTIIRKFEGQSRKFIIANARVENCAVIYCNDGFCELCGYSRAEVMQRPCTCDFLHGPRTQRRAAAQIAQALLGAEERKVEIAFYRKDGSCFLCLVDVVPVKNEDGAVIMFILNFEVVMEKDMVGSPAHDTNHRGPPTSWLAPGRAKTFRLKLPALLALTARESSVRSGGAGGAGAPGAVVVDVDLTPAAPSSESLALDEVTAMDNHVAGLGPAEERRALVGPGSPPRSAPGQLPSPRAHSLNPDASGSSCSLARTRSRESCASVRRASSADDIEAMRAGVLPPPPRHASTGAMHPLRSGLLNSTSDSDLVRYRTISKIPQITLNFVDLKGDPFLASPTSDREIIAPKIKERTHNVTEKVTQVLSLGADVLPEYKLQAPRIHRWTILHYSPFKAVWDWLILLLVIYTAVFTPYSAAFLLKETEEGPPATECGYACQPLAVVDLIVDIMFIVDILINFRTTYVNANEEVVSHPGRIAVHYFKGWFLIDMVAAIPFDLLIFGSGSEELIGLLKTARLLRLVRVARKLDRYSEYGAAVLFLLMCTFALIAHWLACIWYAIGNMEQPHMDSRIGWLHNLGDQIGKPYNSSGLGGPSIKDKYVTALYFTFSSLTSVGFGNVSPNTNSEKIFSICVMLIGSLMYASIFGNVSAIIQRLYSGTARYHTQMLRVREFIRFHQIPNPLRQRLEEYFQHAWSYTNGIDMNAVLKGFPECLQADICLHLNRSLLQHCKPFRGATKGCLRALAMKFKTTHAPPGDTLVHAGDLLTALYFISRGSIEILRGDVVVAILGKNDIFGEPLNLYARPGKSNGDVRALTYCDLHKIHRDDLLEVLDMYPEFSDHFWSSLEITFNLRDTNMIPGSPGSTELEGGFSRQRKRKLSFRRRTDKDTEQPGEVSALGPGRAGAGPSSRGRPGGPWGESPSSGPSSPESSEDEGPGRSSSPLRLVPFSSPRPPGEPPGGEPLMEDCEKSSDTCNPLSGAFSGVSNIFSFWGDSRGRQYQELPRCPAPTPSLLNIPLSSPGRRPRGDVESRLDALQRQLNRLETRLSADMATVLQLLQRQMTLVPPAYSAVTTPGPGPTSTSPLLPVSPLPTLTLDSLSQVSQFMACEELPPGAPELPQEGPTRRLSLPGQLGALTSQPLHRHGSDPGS
Sequence of 3',5'-cyclic-AMP phosphodiesterase 4A (P27815 whole entry): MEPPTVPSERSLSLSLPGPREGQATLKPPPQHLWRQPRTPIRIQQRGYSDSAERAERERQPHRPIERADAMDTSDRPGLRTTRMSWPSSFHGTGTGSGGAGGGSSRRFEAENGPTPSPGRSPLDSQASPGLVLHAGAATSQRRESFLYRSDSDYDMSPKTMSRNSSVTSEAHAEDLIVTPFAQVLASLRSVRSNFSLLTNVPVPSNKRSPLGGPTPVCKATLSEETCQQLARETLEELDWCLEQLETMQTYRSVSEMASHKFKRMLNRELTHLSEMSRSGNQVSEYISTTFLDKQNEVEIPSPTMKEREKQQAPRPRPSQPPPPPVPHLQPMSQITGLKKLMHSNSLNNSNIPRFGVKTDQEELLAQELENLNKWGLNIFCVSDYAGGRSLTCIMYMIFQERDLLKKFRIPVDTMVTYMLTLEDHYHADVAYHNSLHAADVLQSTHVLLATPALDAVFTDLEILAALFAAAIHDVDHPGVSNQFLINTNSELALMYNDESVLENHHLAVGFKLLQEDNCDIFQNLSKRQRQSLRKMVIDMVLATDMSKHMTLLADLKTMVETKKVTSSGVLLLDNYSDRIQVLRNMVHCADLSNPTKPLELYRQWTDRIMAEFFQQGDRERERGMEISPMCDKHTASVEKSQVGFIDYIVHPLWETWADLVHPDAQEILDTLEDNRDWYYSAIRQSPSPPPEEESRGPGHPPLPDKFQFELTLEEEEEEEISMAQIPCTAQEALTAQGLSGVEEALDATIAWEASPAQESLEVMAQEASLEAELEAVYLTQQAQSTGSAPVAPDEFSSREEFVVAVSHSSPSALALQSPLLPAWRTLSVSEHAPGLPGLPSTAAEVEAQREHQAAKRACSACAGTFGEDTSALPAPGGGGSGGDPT
Sequence of Prostaglandin G/H synthase 1 (P23219 whole entry): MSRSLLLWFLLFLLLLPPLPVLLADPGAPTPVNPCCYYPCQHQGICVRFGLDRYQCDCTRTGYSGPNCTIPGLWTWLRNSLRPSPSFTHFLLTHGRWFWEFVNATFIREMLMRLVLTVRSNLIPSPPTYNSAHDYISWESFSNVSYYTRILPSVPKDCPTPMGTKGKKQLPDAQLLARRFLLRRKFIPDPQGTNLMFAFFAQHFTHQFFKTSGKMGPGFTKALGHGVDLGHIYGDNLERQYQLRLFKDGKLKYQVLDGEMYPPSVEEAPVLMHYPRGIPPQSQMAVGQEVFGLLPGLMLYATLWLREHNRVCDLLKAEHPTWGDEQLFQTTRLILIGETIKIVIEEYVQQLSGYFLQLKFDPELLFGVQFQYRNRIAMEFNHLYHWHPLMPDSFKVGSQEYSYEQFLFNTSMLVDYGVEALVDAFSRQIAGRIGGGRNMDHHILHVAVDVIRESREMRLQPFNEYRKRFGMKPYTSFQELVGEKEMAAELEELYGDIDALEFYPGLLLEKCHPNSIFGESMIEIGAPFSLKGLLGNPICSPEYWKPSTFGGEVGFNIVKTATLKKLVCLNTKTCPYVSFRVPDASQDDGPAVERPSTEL

On to `OCc1ccccc1` [BENZYL ALCOHOL], for which the half-maximal activity concentration (AC50) in assay [1], in assay [2], in assay [3], in assay [4], in [5] and in assay [6] was over 30 µM each time. Moreover, the AC50 in assay [7], in assay [8], in assay [9], in [10] and in assay [11] was over 30 µM throughout.

Turning to `CC(C)N1CCN(c2ccc(OCC3COC(Cn4cncn4)(c4ccc(Cl)cc4Cl)O3)cc2)CC1` (stereo unspecified) [TERCONAZOLE], the half-maximal activity concentration (AC50) in assay [1] is over 30 µM; in assay [2], over 30 µM; in [3], 18.7 µM; in assay [4], 2 µM; in assay [5], 6.9 µM; in assay [6], 7.12 µM. The AC50 in assay [7] is over 30 µM; in [8], over 30 µM; in assay [9], over 30 µM; in [10] it was 10.9 µM; in assay [11], over 30 µM.

Take `CO[C@H]1/C=C/O[C@@]2(C)Oc3c(C)c(O)c4c(c3C2=O)C2=NC3(CCN(CC(C)C)CC3)NC2=C(NC(=O)/C(C)=C\C=C\[C@H](C)[C@H](O)[C@@H](C)[C@@H](O)[C@@H](C)[C@H](OC(C)=O)[C@@H]1C)C4=O` [RIFABUTIN]: the AC50 was 17.4 µM in assay [1]; over 30 µM in [2]; over 30 µM in assay [3]; over 30 µM in [4]; over 30 µM in assay [5]; over 30 µM in [6]. For the same compound, the AC50 in [7], in assay [8], in [9], in assay [10] and in assay [11] was over 30 µM throughout.

On to `COc1ncnc(NS(=O)(=O)c2ccc(N)cc2)c1OC` [SULFADOXINE], for which the concentration at half-maximal activity (AC50) in assay [1], in assay [2], in assay [3], in [4], in [5] and in [6] was over 30 µM each time. The AC50 in assay [7], in assay [8], in assay [9], in assay [10] and in assay [11] was over 30 µM in each case.

For the compound `CC(=O)OCC(=O)[C@@]1(OC(C)=O)[C@@H](C)C[C@H]2[C@@H]3C[C@H](F)C4=CC(=O)C=C[C@]4(C)[C@@]3(F)[C@@H](O)C[C@@]21C` [DIFLORASONE DIACETATE], the concentration at half-maximal activity (AC50) was over 30 µM in [1]; over 30 µM in assay [2]; 0.0193 µM in assay [3]; over 30 µM in assay [4]; over 30 µM in [5]; over 30 µM in assay [6]. Further, the AC50 in [7], in assay [8], in [9], in assay [10] and in assay [11] was over 30 µM each time.

As to `C#C[C@]1(OC(C)=O)CC[C@H]2[C@@H]3CCC4=CC(=O)CC[C@@H]4[C@H]3CC[C@@]21C` [NORETHINDRONE ACETATE], the AC50 in assay [1] is over 30 µM; in [2], over 30 µM; in [3] it was 0.033 µM; in assay [4] it was over 30 µM; in assay [5] it was over 30 µM; in [6], over 30 µM. For the same compound, the AC50 in assay [7] is over 30 µM; in [8], over 30 µM; in assay [9], over 30 µM; in assay [10], 9.44 µM; in [11] it was 0.838 µM.

For the compound `C[C@H]1C[C@H]2[C@@H]3CCC4=CC(=O)C=C[C@]4(C)[C@@]3(F)[C@@H](O)C[C@]2(C)[C@@]1(O)C(=O)CO` [BETAMETHASONE], the AC50 in assay [1] is over 30 µM; in assay [2] it was over 30 µM; in [3] it was 11.4 µM; in assay [4], over 30 µM; in assay [5] it was over 30 µM; in [6], over 30 µM. For the same compound, the half-maximal activity concentration (AC50) in [7], in assay [8], in assay [9], in [10] and in [11] was over 30 µM each time.

As for `C[C@@H]1CN(c2c(F)c(N)c3c(=O)c(C(=O)O)cn(C4CC4)c3c2F)C[C@H](C)N1` [SPARFLOXACIN], the AC50 in [1] was over 30 µM; in assay [2] it was over 30 µM; in [3] it was over 30 µM; in [4], over 30 µM; in assay [5], 6.8 µM; in assay [6], over 30 µM. The half-maximal activity concentration (AC50) in assay [7], in [8], in assay [9], in [10] and in [11] was over 30 µM in each case.

Consider `COc1cccc2c1C(=O)c1c(O)c3c(c(O)c1C2=O)C[C@@](O)(C(=O)CO)C[C@@H]3O[C@H]1C[C@H](N)[C@H](O)[C@H](C)O1` [DOXORUBICIN], for which the concentration at half-maximal activity (AC50) was 15.5 µM in assay [1]; over 30 µM in assay [2]; over 30 µM in assay [3]; over 30 µM in [4]; 5.63 µM in [5]; over 30 µM in assay [6]. For the same compound, the AC50 in assay [7], in assay [8], in assay [9], in [10] and in [11] was over 30 µM in each case.

For `N[C@@H](Cc1ccc(N(CCCl)CCCl)cc1)C(=O)O`, the AC50 in assay [1] was 6.82 µM; in assay [2], over 30 µM; in [3], over 30 µM; in [4] it was 11.2 µM; in assay [5] it was 4.8 µM; in [6], 24.8 µM. Moreover, the concentration at half-maximal activity (AC50) in assay [7] was over 30 µM; in assay [8], over 30 µM; in assay [9] it was over 30 µM; in assay [10], 13.6 µM; in [11] it was over 30 µM.

Take `COC(=O)Nc1nc2cc(C(=O)c3ccc(F)cc3)ccc2[nH]1` [FLUBENDAZOLE]: the concentration at half-maximal activity (AC50) in [1], in [2], in assay [3], in assay [4], in assay [5] and in assay [6] was over 30 µM in each case. Moreover, the AC50 in assay [7] was over 30 µM; in [8], over 30 µM; in [9], over 30 µM; in assay [10], over 30 µM; in assay [11], 8.69 µM.

Broadly, the AC50 is the concentration giving half of the maximal activity seen.
